Measurements as given in PubChem BioAssay AID2060495 (Molecular Pharmacology Branch, DTP, NCI, 2025).

Tested on: 521955-158-R2-J5-PDC complex spheroid viability
Assay: Anticancer human tumor 521955-158-R2-J5-PDC patient-derived pancreatic carcinoma cell line growth inhibition [GQUAD]
Settings: for IC50: curve of first compound; for viability, T/C: stronger effect = lower value
Procedure, shortened: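 Tumor cells were grown as complex spheroids with HUVEC endothelial cells and mesenchymal stem cells as stroma. G-quadruplex stabilizers were combined with targeted agents over half-log dilutions from near the clinical Cmax, or from 10 microM.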

[1] = second compound 0.0316 µM, first compound 0.0316 µM
[2] = second compound 0.0316 µM, first compound 0.1 µM
[3] = second compound 0.0316 µM, first compound 0.316 µM
[4] = second compound 0.0316 µM, first compound 1 µM
[5] = second compound 0.0316 µM, first compound 3.16 µM
[6] = second compound 0.0316 µM, first compound 10 µM
[7] = second compound 0.1 µM, first compound 0.0316 µM
[8] = second compound 0.1 µM, first compound 0.1 µM
[9] = second compound 0.1 µM, first compound 0.316 µM
[10] = second compound 0.1 µM, first compound 1 µM
[11] = second compound 0.1 µM, first compound 3.16 µM
[12] = second compound 0.1 µM, first compound 10 µM
[13] = second compound 0.316 µM, first compound 0.0316 µM
[14] = second compound 0.316 µM, first compound 0.1 µM
[15] = second compound 0.316 µM, first compound 0.316 µM
[16] = second compound 0.316 µM, first compound 1 µM
[17] = second compound 0.316 µM, first compound 3.16 µM
[18] = second compound 0.316 µM, first compound 10 µM
[19] = second compound 1 µM, first compound 0.0316 µM
[20] = second compound 1 µM, first compound 0.1 µM
[21] = second compound 1 µM, first compound 0.316 µM
[22] = second compound 1 µM, first compound 1 µM
[23] = second compound 1 µM, first compound 3.16 µM
[24] = second compound 1 µM, first compound 10 µM
[25] = second compound 3.16 µM, first compound 0.0316 µM
[26] = second compound 3.16 µM, first compound 0.1 µM
[27] = second compound 3.16 µM, first compound 0.316 µM
[28] = second compound 3.16 µM, first compound 1 µM
[29] = second compound 3.16 µM, first compound 3.16 µM
[30] = second compound 3.16 µM, first compound 10 µM
[31] = second compound 10 µM, first compound 0.0316 µM
[32] = second compound 10 µM, first compound 0.1 µM
[33] = second compound 10 µM, first compound 0.316 µM
[34] = second compound 10 µM, first compound 1 µM
[35] = second compound 10 µM, first compound 3.16 µM
[36] = second compound 10 µM, first compound 10 µM
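Note: spheroids exposed to agents for one week before reading.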
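Throughout, for viability, T/C: 100% = DMSO vehicle control viability.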

Q: Which results are given for `C=CCn1c(=O)c2cnc(Nc3ccc(N4CCN(C)CC4)cc3)nc2n1-c1cccc(C(C)(C)O)n1` + CN(C)c1ccc(Nc2c3ccc(NC(=O)CCN4CCCC4)cc3nc3cc(NC(=O)CCN4CCCC4)ccc23)cc1?
A: IC50 (second compound 0.0316 µM): 189 nM; IC50 (second compound 0.1 µM): 208 nM; IC50 (second compound 0.316 µM): 188 nM; IC50 (second compound 1 µM): 207 nM; IC50 (second compound 3.16 µM): 201 nM; IC50 (second compound 10 µM): 401 nM; viability, T/C [1]: 112%; viability, T/C [2]: 76.5%; viability, T/C [3]: 28.2%; viability, T/C [4]: 16.8%; viability, T/C [5]: 11.2%; viability, T/C [6]: 13.4%; viability, T/C [7]: 107%; viability, T/C [8]: 85.7%; viability, T/C [9]: 29.5%; viability, T/C [10]: 15.5%; viability, T/C [11]: 14.3%; viability, T/C [12]: 12.2%; viability, T/C [13]: 82.6%; viability, T/C [14]: 80.7%; viability, T/C [15]: 24.8%; viability, T/C [16]: 11.6%; viability, T/C [17]: 14%; viability, T/C [18]: 15.2%; viability, T/C [19]: 90.5%; viability, T/C [20]: 85.2%; viability, T/C [21]: 29.5%; viability, T/C [22]: 15.9%; viability, T/C [23]: 13.4%; viability, T/C [24]: 16.2%; viability, T/C [25]: 84.6%; viability, T/C [26]: 74.4%; viability, T/C [27]: 33.7%; viability, T/C [28]: 23.3%; viability, T/C [29]: 18.6%; viability, T/C [30]: 13.5%; viability, T/C [31]: 65.1%; viability, T/C [32]: 67.6%; viability, T/C [33]: 53.3%; viability, T/C [34]: 31.6%; viability, T/C [35]: 7.79%; viability, T/C [36]: 1.53%

Q: Which results are given for `CC(=O)O[C@H]1C(=O)[C@@]2(C)[C@H]([C@H](OC(=O)c3ccccc3)[C@]3(O)C[C@H](OC(=O)[C@H](O)[C@@H](NC(=O)c4ccccc4)c4ccccc4)C(C)=C1C3(C)C)[C@]1(OC(C)=O)CO[C@@H]1C[C@@H]2O` + CN(C)c1ccc(Nc2c3ccc(NC(=O)CCN4CCCC4)cc3nc3cc(NC(=O)CCN4CCCC4)ccc23)cc1?
A: IC50 (second compound 0.0316 µM): < 31.6 nM; IC50 (second compound 0.1 µM): 44.8 nM; IC50 (second compound 0.316 µM): < 31.6 nM; IC50 (second compound 1 µM): < 31.6 nM; IC50 (second compound 3.16 µM): 31.7 nM; IC50 (second compound 10 µM): < 31.6 nM; viability, T/C [1]: 46.1%; viability, T/C [2]: 40.9%; viability, T/C [3]: 35.2%; viability, T/C [4]: 32.3%; viability, T/C [5]: 27.5%; viability, T/C [6]: 34.7%; viability, T/C [7]: 55.7%; viability, T/C [8]: 37.6%; viability, T/C [9]: 30.8%; viability, T/C [10]: 23%; viability, T/C [11]: 33.9%; viability, T/C [12]: 29.9%; viability, T/C [13]: 47.7%; viability, T/C [14]: 34.1%; viability, T/C [15]: 28%; viability, T/C [16]: 22.7%; viability, T/C [17]: 29.4%; viability, T/C [18]: 33.1%; viability, T/C [19]: 54.6%; viability, T/C [20]: 33%; viability, T/C [21]: 28.3%; viability, T/C [22]: 33.9%; viability, T/C [23]: 39.4%; viability, T/C [24]: 38.5%; viability, T/C [25]: 50%; viability, T/C [26]: 31.1%; viability, T/C [27]: 30.3%; viability, T/C [28]: 31.5%; viability, T/C [29]: 33.4%; viability, T/C [30]: 42%; viability, T/C [31]: 50.9%; viability, T/C [32]: 35.2%; viability, T/C [33]: 36.4%; viability, T/C [34]: 27.8%; viability, T/C [35]: 29.9%; viability, T/C [36]: 35.2%

Q: How did the IC50 (second compound 0.0316 µM) turn out when `CC(C)(O)C1CCC(Nc2ccc3ncc(-c4cccc(C(F)(F)F)c4)n3n2)CC1` (stereo not drawn) + CN(C)c1ccc(Nc2c3ccc(NC(=O)CCN4CCCC4)cc3nc3cc(NC(=O)CCN4CCCC4)ccc23)cc1 was run?
A: 2060 nM

Q: What about the IC50 (second compound 0.1 µM) of the same molecule?
A: 2010 nM

Q: What about the IC50 (second compound 0.316 µM) of the same molecule?
A: 2050 nM

Q: And the IC50 (second compound 1 µM)?
A: 2010 nM

Q: And the IC50 (second compound 3.16 µM)?
A: 1800 nM

Q: And the IC50 (second compound 10 µM)?
A: 1280 nM

Q: And the viability, T/C [1]?
A: 102%

Q: What about the viability, T/C [2] of the same molecule?
A: 107%

Q: And the viability, T/C [3]?
A: 105%

Q: And the viability, T/C [4]?
A: 111%

Q: And the viability, T/C [5]?
A: 13.1%

Q: What about the viability, T/C [6] of the same molecule?
A: 19.7%

Q: What about the viability, T/C [7] of the same molecule?
A: 101%

Q: And the viability, T/C [8]?
A: 103%

Q: And the viability, T/C [9]?
A: 98.5%

Q: And the viability, T/C [10]?
A: 117%

Q: And the viability, T/C [11]?
A: 10.4%

Q: And the viability, T/C [12]?
A: 18.7%

Q: And the viability, T/C [13]?
A: 106%

Q: What about the viability, T/C [14] of the same molecule?
A: 88%

Q: And the viability, T/C [15]?
A: 113%

Q: And the viability, T/C [16]?
A: 113%

Q: And the viability, T/C [17]?
A: 16.1%

Q: And the viability, T/C [18]?
A: 17.5%

Q: And the viability, T/C [19]?
A: 95.4%

Q: And the viability, T/C [20]?
A: 107%

Q: And the viability, T/C [21]?
A: 95.8%

Q: And the viability, T/C [22]?
A: 116%

Q: And the viability, T/C [23]?
A: 15.1%

Q: And the viability, T/C [24]?
A: 13.6%

Q: What about the viability, T/C [25] of the same molecule?
A: 82%

Q: What about the viability, T/C [26] of the same molecule?
A: 87.3%

Q: What about the viability, T/C [27] of the same molecule?
A: 79.2%

Q: And the viability, T/C [28]?
A: 99.5%

Q: And the viability, T/C [29]?
A: 13.8%

Q: What about the viability, T/C [30] of the same molecule?
A: 15%

Q: And the viability, T/C [31]?
A: 70.4%

Q: And the viability, T/C [32]?
A: 73.1%

Q: And the viability, T/C [33]?
A: 64.6%

Q: And the viability, T/C [34]?
A: 62.2%

Q: What about the viability, T/C [35] of the same molecule?
A: 6.61%

Q: What about the viability, T/C [36] of the same molecule?
A: 1.12%

Q: `CCCS(=O)(=O)Nc1ccc(F)c(C(=O)c2c[nH]c3ncc(-c4ccc(Cl)cc4)cc23)c1F` + CN(C)c1ccc(Nc2c3ccc(NC(=O)CCN4CCCC4)cc3nc3cc(NC(=O)CCN4CCCC4)ccc23)cc1 was tested. Which IC50 (second compound 0.0316 µM) did it give?
A: > 10000 nM

Q: And the IC50 (second compound 0.1 µM)?
A: > 10000 nM

Q: What about the IC50 (second compound 0.316 µM) of the same molecule?
A: > 10000 nM

Q: What about the IC50 (second compound 1 µM) of the same molecule?
A: > 10000 nM

Q: What about the IC50 (second compound 3.16 µM) of the same molecule?
A: 6690 nM

Q: And the IC50 (second compound 10 µM)?
A: 3720 nM

Q: And the viability, T/C [1]?
A: 124%

Q: What about the viability, T/C [2] of the same molecule?
A: 89.2%

Q: What about the viability, T/C [3] of the same molecule?
A: 80.7%

Q: What about the viability, T/C [4] of the same molecule?
A: 118%

Q: What about the viability, T/C [5] of the same molecule?
A: 271%

Q: And the viability, T/C [6]?
A: 106%

Q: What about the viability, T/C [7] of the same molecule?
A: 102%

Q: And the viability, T/C [8]?
A: 84%

Q: What about the viability, T/C [9] of the same molecule?
A: 72.4%

Q: What about the viability, T/C [10] of the same molecule?
A: 109%

Q: What about the viability, T/C [11] of the same molecule?
A: 264%

Q: And the viability, T/C [12]?
A: 106%

Q: What about the viability, T/C [13] of the same molecule?
A: 95.5%

Q: And the viability, T/C [14]?
A: 90.1%

Q: And the viability, T/C [15]?
A: 92.5%

Q: What about the viability, T/C [16] of the same molecule?
A: 104%

Q: What about the viability, T/C [17] of the same molecule?
A: 248%

Q: And the viability, T/C [18]?
A: 98.3%

Q: What about the viability, T/C [19] of the same molecule?
A: 95.4%

Q: What about the viability, T/C [20] of the same molecule?
A: 76.4%

Q: What about the viability, T/C [21] of the same molecule?
A: 76.8%

Q: And the viability, T/C [22]?
A: 171%

Q: What about the viability, T/C [23] of the same molecule?
A: 251%

Q: What about the viability, T/C [24] of the same molecule?
A: 85.2%

Q: What about the viability, T/C [25] of the same molecule?
A: 73%

Q: And the viability, T/C [26]?
A: 83.6%

Q: And the viability, T/C [27]?
A: 61%

Q: And the viability, T/C [28]?
A: 111%

Q: What about the viability, T/C [29] of the same molecule?
A: 174%

Q: What about the viability, T/C [30] of the same molecule?
A: 22.9%

Q: And the viability, T/C [31]?
A: 69.9%

Q: And the viability, T/C [32]?
A: 68.4%

Q: And the viability, T/C [33]?
A: 111%

Q: What about the viability, T/C [34] of the same molecule?
A: 100%

Q: What about the viability, T/C [35] of the same molecule?
A: 58%

Q: And the viability, T/C [36]?
A: 2.26%
